# Assays:
# [1] = tested on: rat liver microsomes containing cytochromes P450 and microsomal glutathione S-transferase
# Description: Alternatively, reactive metabolites may be trapped as phase II conjugates such as glutathione adducts.
# Glutathione adducts formed from reactive drugs or their activated metabolites in the ultrafiltrate may be trapped and concentrated on a trapping column and then analyzed using LC-MS or LC-MS-MS for identification of the metabolites and for the differentiation of isomeric products.
# [2] = tested on: rat liver microsomal cytochromes P450; conditions: for extent of metabolism by cytochromes P450 indicated by high throughput assays: microsomes
# Description: Chlorpromazine is an antidepressant-drug that undergoes extensive hepatic metabolism. […] The area under the curve for unreacted chlorpromazine is proportional to the amount of chlorpromazine consumed during the on-line metabolism experiment.
# Pentoxyresorufin (1 μg) was injected into the ultrafiltration chamber containing hepatic microsomes as described herein.
# Microsomes may be prepared from any types of cells or tissues, which are obtained from any species including humans. For the examples cited, male or female Sprague-Dawley rats (180-200 g) were obtained from Sasco Inc. (Omaha, Nebr.). Microsomes were prepared from rat liver, and protein and cytochrome P450 concentrations were determined using standard procedures (1). […] This washing step may be accelerated by using a higher flow rate, but care should be taken to avoid excessive pressure and rupture of the ultrafiltration membrane.
# The ultrafiltration chamber (FIG. 1B) was built in-house out of polyetheretherketone (PEEK) and contained a Teflon®-coated magnetic stirring bar and a Viton® O-ring, which formed a seal around the ultrafiltration membrane. […] Chromatography tubing and fittings were made from polyetheretherketone (PEEK, Upchurch Scientific, Oak Harbor, Wash.).
# NADPH and drug substrates were purchased from Sigma Chemical Company (St. Louis, Mo. All solvents were HPLC grade. Into a mobile phase consisting of 50 mM anmmonium acetate, pH 7.4, and 0.1 mM NADPH at a flow rate of 70 μL/min, chlorpromazine (3 μg) in 50 μL buffer was injected into the ultrafiltration chamber. Protonated molecules of chlorpromazine, cofactor NADPH, and the microsomal metabolic products were recorded continuously using positive ion electrospray mass spectrometry. In another experiment, 1 μg of pentoxyresorufin was injected into the ultrafiltration chamber containing hepatic microsomes as described above. […] In some experiments, NADPH was injected simultaneously with substrate instead of being added to the mobile phase.
# Typically, a wide mass range was scanned by the mass spectrometer in order to identify the major metabolites (if unknown). Once the major metabolites are known or if only the compounds injected into the first chamber need to be analyzed, selected ion monitoring mass spectrometry is used to follow the appearance of metabolites, monitor the consumption of NADPH, and/or monitor the profile of unreacted compound(s).
# The transfer line between the ultrafiltration chamber and the mass spectrometer was flushed for 1 min, then mass spectra were recorded for 2 min.
# Caco-2 cells = format: in vitro ADME; conditions: human, Caco-2, 118 µM
# Description: Bioavailability assays are generally carried out in one of two ways. In one type of assay, the chamber is loaded with cells (i.e., Caco-2 human intestinal epithelial cells) such that the volume of the cells is significant compared to the volume of the chamber (e.g., 1 million cells/mL), and a size exclusion experiment is carried out. (Hidalgo, et al. 1989). An aliquot of a drug mixture is injected through the chamber and the elution profile is recorded by the mass spectrometer detector. The mixture may contain a single drug or a mixture of drugs under investigation and two internal controls: The negative control compound (such as mannitol) is excluded from entering the cells; and the positive control compound (such as certain steroids) readily enters the cells. Compounds that are excluded from the cells are washed out of the ultrafiltration chamber faster and are detected first, while compounds that enter the cells are distributed into a larger volume within the chamber and require longer to elute. In this manner, quantitative bioavailability or absorption data may be determined. In another type of bioavailability assay, a monolayer of cells (i.e., Caco-2 cells) is grown on an ultrafiltration membrane, which is then mounted in the ultrafiltration chamber with the cells facing the interior of the chamber. […] Compounds that readily enter and pass through the cells are detected first. […]
# cytochrome P450 isozymes = conditions: cited from earlier work
SMILES,metabolism according to the literature (cytochrome P450 isozymes),metabolites detected in high throughput metabolic screening [2],extent of metabolism by cytochromes P450 indicated by high throughput assays [2],effect on cytochrome P450 isozymes according to the literature (cytochrome P450 isozymes),further results
Cc1c[nH]c2ccccc12 [3-methylindole],–,–,–,–,glutathione adducts detected [1]: observed
CCCCCOc1ccc2nc3ccc(=O)cc-3oc2c1 [Pentoxyresorufin],–,–,–,–,metabolism in control without NADPH [2]: no metabolism occurred
CC(=O)Oc1ccccc1C(=O)O [aspirin],–,–,–,–,relative elution rates aspirin/propranolol (ratio of slopes of ln [drug] vs. elution time) (Caco-2 cells): 1.6:1
CN(C)CCCN1c2ccccc2Sc2ccc(Cl)cc21 [chlorpromazine],metabolized extensively,observed,extensive metabolism,–,–
O=C1C[C@@H](c2ccc(O)cc2)Oc2cc(O)cc(O)c21 [naringenin],not metabolized,no metabolites,not,inhibit the action of certain cytochrome P450 isozymes,–
C=C[C@H]1C[N@@]2CC[C@H]1C[C@@H]2[C@@H](O)c1ccnc2ccc(OC)cc12 [quinidine],not metabolized,no metabolites,not,inhibit the action of certain cytochrome P450 isozymes,–

# From patent US6995022B1, “Screening of xenobiotics and endogenous compounds for metabolic transformation, formation of toxic metabolites, and bioavailability” (Board of Trustees of the University of Illinois, priority 1998, dated 2006)
